In patent publication US10172957B2, “Acid-labile lipophilic prodrugs of cancer chemotherapeutic agents” (priority 2011, dated 2019):

Key:
[1] = system: MES-SA uterine sarcoma line; test: MTT-based cytotoxicity assay, MES-SA; format: cell-based, human; conditions: Homo sapiens, MES-SA, read-out: IC50 MESSA (Hs)
Excerpt: (§1) A second evaluation of the cytotoxicity of the acid labile, lipophilic molecular conjugates was undertaken.
(§2) These lines included a uterine sarcoma line, MES-SA, and its doxorubicin-resistant subline, MES-SA/Dx5. See W. G. Harker, F. R MacKintosh, and B. I. Sikic. Development and characterization of a human sarcoma cell line, MES-SA, sensitive to multiple drugs. Cancer Research 43: 4943-4950 (1983); W. G. Harker and B. I. Sikic. Multidrug (pleiotropic) resistance in doxorubicin-selected variants of the human sarcoma cell line MES-SA. Cancer Research 45: 4091 4096 (1985).
(§3) MES-SA/Dx5 cells express high levels of ABCB1 (MDR1) mRNA and its gene product, the P-glycoprotein. MES-SA and MES-SA/Dx5 were purchased from the American Type Culture Collection (ATCC, Manassas, Va.).

[2] = system: MES-SA/Dx5 doxorubicin-resistant subline (MDR+); test: cells; format: cell-based, human; conditions: for IC50: Homo sapiens, MES-SA/Dx5, read-out: IC50 MESSA/Dx5 (MDR + Hs); for Degree of resistance (MESSA/Dx5): IC50 of the resistant line divided by IC50 of sensitive MES-SA cells
Excerpt: as §1, §2, §3

[3] = Stability in mouse plasma at 37° C.; format: in vitro ADME
Method: The stability of the acid labile, lipophilic molecular conjugates to hydrolysis in plasma was evaluated to determine their potential to release the active cancer chemotherapeutic agents into systemic circulation and thereby cause general off target toxicity (“side effects”). The conjugates were incubated with plasma of mouse, rat and human origin.
HPLC grade Methanol from Fisher (Fair lawn, NJ, USA). Part No: A452-4 (074833). HPLC grade Water from Fisher (Fair lawn, NJ, USA). Part No: W5-4 (073352). Drug-free mouse, rat and human plasmas were purchased from Innovative Research Inc. (Southfield, Mich., USA). LIPOSYN® I.V. (30% soybean oil and egg yolk phospholipids, Abbott Laboratories) Fat Emulsion from Hospira, Inc. (Lake Forest, Ill.).
Each drug (ART 198, ART 273, ART 488 and ART 489) was prepared in triplicate in mouse, rat and human plasma individually at […] concentration and vortexed for 1 minute and placed in a water bath at 37° C. at a shake rate of 75 per minute. Samples were drawn at time points of 0, 15, 30, 45, 60, 75, 90, 105, 120, 135, 150, 165, 180, 210, 240, 300, 360 and 480 minutes.
Chromatographic separation of the compounds was performed on a Waters Acquity UPLC™ using a BEH C18 column (1.7 μm, 2.1×50 mm). The mobile phase consisted of Methanol: 0.1% Formic acid (80:20). The flow rate was 0.3 ml/min; the sample injection volume was 5 μL, resulting in a 3 minute run time.
The MS instrumentation consisted of a Waters Micromass Quattro Micro™ triple-quadrupole system (Manchester, UK). The MS system was controlled by a 4.0 version of MassLynx software. Ionization was performed in the positive electrospray ionization mode. MS/MS conditions were the following: capillary voltage 3.02 kV; cone voltage 50 v; extractor voltage 5 v; and RF lens voltage 0.5 v. The source and desolvation temperatures were 100° C. and 400° C. respectively, and the desolvation and cone gas flow were 400 and 30 L/hr, respectively.
The selected mass-to-charge (m/z) ratio transitions of the ART 198 used in the selected ion monitoring (SIM) were: for ART 198, 617 (M+K)^+, for ART 273, 589 (M+K)^+, for ART 488, 913 (M+Na)^+, and for ART 489, 957 (M+Na)^+. The dwell time was set at 200 msec. MS conditions were optimized using direct infusion of standard solutions prepared in methanol and delivered by a syringe pump at a flow rate of 20 μL/min.
Samples of 100 μL were collected at time points of 0, 15, 30, 45, 60, 75, 90, 105, 120, 135, 150, 165, 180, 210, 240, 300, 360 and 480 minutes respectively and the reaction was terminated with methanol. In a separate set of experiments the acid labile, lipophilic molecular conjugates were dissolved in a small amount of ethanol and diluted into a lipid emulsion (Liposyn®) and added to mouse and human plasma before incubation and the hydrolysis of the conjugates was similarly measured. Collected plasma samples of 100 μL containing drug were placed in separate Eppendorf micro centrifuge tubes for processing. Methanol (200 μL) was added to extract the drug using the protein precipitation technique. The micro tubes were then vortex mixed for 10 minutes and centrifuged for 15 minutes at a speed of 10,000 rpm (Eppendorf 5415C centrifuge). The supernatant was collected and filtered using a 0.45 μm filter (Waters 13 mm GHP 0.45 μm) before analysis.
The weighted linear least-squares (1/x) regression was used as the mathematical model. The coefficient (r) for the compounds ranged from 0.9925 to 0.9999. The calibration range was selected according to the concentrations anticipated in the samples to be determined.
Samples were collected at various times and the percent remaining of the acid labile, lipophilic molecular conjugate of the cancer chemotherapeutic agent was determined along with the percent of the chemotherapeutic agent released from the hydrolysis of the conjugate.

[4] = Estimation of maximum tolerated dose (MTD) in the mouse; conditions: in vivo, iv, mice, in lipid emulsion (INTRALIPID), survival for 30 day observation period
Method: Stock solutions of ART 198 and 273 and their respective acid labile, lipophilic molecular conjugates (ART 489 and ART 488, respectively) were prepared in ethanol and then diluted into a lipid emulsion (INTRALIPID®, 20% Soybean Oil, 1.2% egg yolk phospholipids, 2.25% glycerin and water) and injected intravenously into mice at various doses in milligrams per kilogram. The animals were observed daily for signs of toxicity and/or death for a period of 30 days. The MTD was defined as survival of the dosed mice for the full 30 day observation period.

| Structure (SMILES) | IC50 [1] | IC50 [2] | Degree of resistance (MESSA/Dx5) [2] | percent remaining of initial drug ([3]; 0 min) | percent remaining of initial drug ([3]; 15 min) | percent remaining of initial drug ([3]; 30 min) | percent remaining of initial drug ([3]; 45 min) | percent remaining of initial drug ([3]; 60 min) | percent remaining of initial drug ([3]; 75 min) | percent remaining of initial drug ([3]; 90 min) | percent remaining of initial drug ([3]; 105 min) | percent remaining of initial drug ([3]; 120 min) | percent remaining of initial drug ([3]; 135 min) | percent remaining of initial drug ([3]; 150 min) | percent remaining of initial drug ([3]; 165 min) | percent remaining of initial drug ([3]; 180 min) | percent remaining of initial drug ([3]; 210 min) | percent remaining of initial drug ([3]; 240 min) | percent remaining of initial drug ([3]; 300 min) | percent remaining of initial drug ([3]; 360 min) | also measured |
| --- | --- | --- | --- | --- | --- | --- | --- | --- | --- | --- | --- | --- | --- | --- | --- | --- | --- | --- | --- | --- | --- |
| CCCCCCCCCCCCCCCC1OCC(COC(=O)OC2=C(C)[C@@H]3C[C@H]4OC(=O)C(OC(=O)CC5(O)CCCCC5)[C@H]5[C@]6(C(=O)OC)OC[C@]45[C@H]([C@@H](O)[C@@H]6O)[C@@]3(C)CC2=O)O1 (stereo partly drawn) [ART 489] | 5.5 ± 3.5 nM | 17 ± 5.7 nM | 4.3 ± 3.8 | 100% | 95.7% | 88.6% | 84.8% | 79.2% | 78.1% | 70.1% | 68.0% | 64.1% | 63.2% | 59.4% | 54.7% | 51.6% | 50.3% | 47.5% | 41.1% | 38.1% | MTD at 30 days [4]: 3.1 mg/kg |
| CCCCCCCCCCCCCCCC1OCC(COC(=O)O[C@@H]2C(=O)C=C(C)[C@@H]3C[C@H]4OC(=O)C(OC(=O)CC(O)(C(C)C)C(C)C)C5[C@@H](C)[C@@H](O)[C@@]6(O)OC[C@@]54C6[C@@]23C)O1 (stereo partly drawn) [ART 488] | 1.5 ± 0.7 nM | 7 ± 5.7 nM | 4.3 ± 1.8 | 100% | 91.2% | 85.7% | 81.3% | 75.0% | 73.2% | 65.2% | 58.8% | 56.4% | 56.2% | 55.0% | 53.7% | 53.7% | 52.4% | 50.3% | 48.2% | 45.6% | MTD at 30 days [4]: 4 mg/kg |
| COC(=O)[C@@]12OC[C@]34[C@H]([C@@H](O)[C@@H]1O)[C@@]1(C)CC(=O)C(O)=C(C)[C@@H]1C[C@H]3OC(=O)C(OC(=O)CC1(O)CCCCC1)[C@@H]24 (stereo partly drawn) [ART 198] | 47.5 ± 11 nM | 376 ± 110 nM | 7.9 ± 0.6 | 100% | 96.8% | 94.0% | 85.5% | 82.0% | 72.6% | 66.9% | 63.2% | 59.2% | 57.4% | 51.9% | 46.2% | 43.0% | 39.3% | 35.4% | 32.4% | 28.8% | MTD at 30 days [4]: 4 mg/kg |
